US20230220063A1, “IL-1BETA BINDING ANTIBODIES FOR USE IN TREATING CANCER” (NOVARTIS AG, priority 2017, published 2023)

Tested on: incident cancers in post-myocardial infarction patients with hsCRP ≥2 mg/L
Test: CANTOS trial: incident cancers, cancer mortality, canakinumab vs placebo
Format: in vivo, human

## canakinumab: high-affinity, fully human monoclonal antibody of the IgG1/k to interleukin-1β; INN number 8836
50 mg SC q 3 months
  Breast, incidence rate (number): 0.09(7) per 100 person years
  Central Nervous System, incidence rate (number): 0.04(3) per 100 person years
  Endocrine: Adrenal, incidence rate (number): 0 per 100 person years
  Endocrine: Thyroid, incidence rate (number): 0.01(1) per 100 person years
  Gastrointenstinal: Appendiceal, incidence rate (number): 0 per 100 person years
  Gastrointenstinal: Biliary, incidence rate (number): 0.03(2) per 100 person years
  Gastrointenstinal: Colorectal, incidence rate (number): 0.25(20) per 100 person years
  Gastrointenstinal: Esophageal, incidence rate (number): 0.08(6) per 100 person years
  Gastrointenstinal: Gastric, incidence rate (number): 0.04(3) per 100 person years
  Gastrointenstinal: Oral cavity/tongue, incidence rate (number): 0.03(2) per 100 person years
  Gastrointenstinal: Pancreatic, incidence rate (number): 0.04(3) per 100 person years
  Genitourinary: Bladder, incidence rate (number): 0.10(8) per 100 person years
  Genitourinary: Cervical, incidence rate (number): 0 per 100 person years
  Genitourinary: Endometrial/Uterine, incidence rate (number): 0.03(2) per 100 person years
  Genitourinary: Ovarian, incidence rate (number): 0 per 100 person years
  Genitourinary: Prostate, incidence rate (number): 0.19(15) per 100 person years
  Genitourinary: Testicular, incidence rate (number): 0 per 100 person years
  Hematopoetic: Leukemia, incidence rate (number): 0.01(1) per 100 person years
  Hematopoetic: Lymphoma, incidence rate (number): 0.04(3) per 100 person years
  Hematopoetic: Multiple myeloma, incidence rate (number): 0 per 100 person years
  Kidney, incidence rate (number): 0.13(10) per 100 person years
  Liver, incidence rate (number): 0.04(3) per 100 person years
  Lung Cancers: Adenocarcinoma or poorly differentiated large cell carcinoma or unspecified, incidence rate (number): 0.33 per 100 person years
  Lung Cancers: Pleural cancer, incidence rate (number): 0 per 100 person years
  Lung Cancers: Small cell lung cancer, incidence rate (number): 0.01 (1) per 100 person years
  Lung Cancers: Squamous cell lung carcinoma, incidence rate (number): 0.01 (1) per 100 person years
  Other cancer sites: Other, incidence rate (number): 0.08(6) per 100 person years
  Sarcoma / Bone, incidence rate (number): 0.01(1) per 100 person years
  Skin: Basal cell carcinoma, incidence rate (number): 0.28(22) per 100 person years
  Skin: Melanoma, incidence rate (number): 0.08(6) per 100 person years
  Skin: Other, incidence rate (number): 0 per 100 person years
  Skin: Squamous cell skin cancer, incidence rate (number): 0.10(8) per 100 person years
50 mg SC q 3 months, listed as Canakinumab
  Lung Cancers: Adenocarcinoma or poorly differentiated large cell carcinoma or unspecified, incidence rate (number): 0.33 (26) per 100 person years
150 mg SC q 3 months
  Breast, incidence rate (number): 0.05(4) per 100 person years
  Central Nervous System, incidence rate (number): 0.05(4) per 100 person years
  Endocrine: Adrenal, incidence rate (number): 0.01(1) per 100 person years
  Endocrine: Thyroid, incidence rate (number): 0.02(2) per 100 person years
  Gastrointenstinal: Appendiceal, incidence rate (number): 0 per 100 person years
  Gastrointenstinal: Biliary, incidence rate (number): 0.03(3) per 100 person years
  Gastrointenstinal: Colorectal, incidence rate (number): 0.19(16) per 100 person years
  Gastrointenstinal: Esophageal, incidence rate (number): 0.03(3) per 100 person years
  Gastrointenstinal: Gastric, incidence rate (number): 0.02(2) per 100 person years
  Gastrointenstinal: Oral cavity/tongue, incidence rate (number): 0.05(4) per 100 person years
  Gastrointenstinal: Pancreatic, incidence rate (number): 0.06(5) per 100 person years
  Genitourinary: Bladder, incidence rate (number): 0.08(7) per 100 person years
  Genitourinary: Cervical, incidence rate (number): 0.01(1) per 100 person years
  Genitourinary: Endometrial/Uterine, incidence rate (number): 0 per 100 person years
  Genitourinary: Ovarian, incidence rate (number): 0.01(1) per 100 person years
  Genitourinary: Prostate, incidence rate (number): 0.16(14) per 100 person years
  Genitourinary: Testicular, incidence rate (number): 0.01(1) per 100 person years
  Hematopoetic: Leukemia, incidence rate (number): 0.02(2) per 100 person years
  Hematopoetic: Lymphoma, incidence rate (number): 0.05(4) per 100 person years
  Hematopoetic: Multiple myeloma, incidence rate (number): 0 per 100 person years
  Kidney, incidence rate (number): 0.07(6) per 100 person years
  Liver, incidence rate (number): 0.06(5) per 100 person years
  Lung Cancers: Adenocarcinoma or poorly differentiated large cell carcinoma or unspecified, incidence rate (number): 0.27 per 100 person years
  Lung Cancers: Pleural cancer, incidence rate (number): 0 per 100 person years
  Lung Cancers: Small cell lung cancer, incidence rate (number): 0.01 (1) per 100 person years
  Lung Cancers: Squamous cell lung carcinoma, incidence rate (number): 0.02 (2) per 100 person years
  Other cancer sites: Other, incidence rate (number): 0.06(5) per 100 person years
  Sarcoma / Bone, incidence rate (number): 0 per 100 person years
  Skin: Basal cell carcinoma, incidence rate (number): 0.29(25) per 100 person years
  Skin: Melanoma, incidence rate (number): 0.06(5) per 100 person years
  Skin: Other, incidence rate (number): 0.06(5) per 100 person years
  Skin: Squamous cell skin cancer, incidence rate (number): 0.15(13) per 100 person years
150 mg SC q 3 months, listed as Canakinumab
  Lung Cancers: Adenocarcinoma or poorly differentiated large cell carcinoma or unspecified, incidence rate (number): 0.27 (23) per 100 person years
300 mg SC q 3 months
  Breast, incidence rate (number): 0.06(5) per 100 person years
  Central Nervous System, incidence rate (number): 0.03(3) per 100 person years
  Endocrine: Adrenal, incidence rate (number): 0.01(1) per 100 person years
  Endocrine: Thyroid, incidence rate (number): 0.01(1) per 100 person years
  Gastrointenstinal: Appendiceal, incidence rate (number): 0.01(1) per 100 person years
  Gastrointenstinal: Biliary, incidence rate (number): 0 per 100 person years
  Gastrointenstinal: Colorectal, incidence rate (number): 0.21(18) per 100 person years
  Gastrointenstinal: Esophageal, incidence rate (number): 0.08(7) per 100 person years
  Gastrointenstinal: Gastric, incidence rate (number): 0.06(5) per 100 person years
  Gastrointenstinal: Oral cavity/tongue, incidence rate (number): 0.02(2) per 100 person years
  Gastrointenstinal: Pancreatic, incidence rate (number): 0.06(5) per 100 person years
  Genitourinary: Bladder, incidence rate (number): 0.13(11) per 100 person years
  Genitourinary: Cervical, incidence rate (number): 0 per 100 person years
  Genitourinary: Endometrial/Uterine, incidence rate (number): 0.03(3) per 100 person years
  Genitourinary: Ovarian, incidence rate (number): 0 per 100 person years
  Genitourinary: Prostate, incidence rate (number): 0.17(15) per 100 person years
  Genitourinary: Testicular, incidence rate (number): 0 per 100 person years
  Hematopoetic: Leukemia, incidence rate (number): 0.01(1) per 100 person years
  Hematopoetic: Lymphoma, incidence rate (number): 0.07(6) per 100 person years
  Hematopoetic: Multiple myeloma, incidence rate (number): 0.02(2) per 100 person years
  Kidney, incidence rate (number): 0.07(6) per 100 person years
  Liver, incidence rate (number): 0.03(3) per 100 person years
  Lung Cancers: Adenocarcinoma or poorly differentiated large cell carcinoma or unspecified, incidence rate (number): 0.12 per 100 person years
  Lung Cancers: Pleural cancer, incidence rate (number): 0 per 100 person years
  Lung Cancers: Small cell lung cancer, incidence rate (number): 0.01 (1) per 100 person years
  Lung Cancers: Squamous cell lung carcinoma, incidence rate (number): 0.03 (3) per 100 person years
  Other cancer sites: Other, incidence rate (number): 0.02(2) per 100 person years
  Sarcoma / Bone, incidence rate (number): 0.01(1) per 100 person years
  Skin: Basal cell carcinoma, incidence rate (number): 0.21(18) per 100 person years
  Skin: Melanoma, incidence rate (number): 0.06(5) per 100 person years
  Skin: Other, incidence rate (number): 0.02(2) per 100 person years
  Skin: Squamous cell skin cancer, incidence rate (number): 0.27(23) per 100 person years
300 mg SC q 3 months, listed as Canakinumab
  Lung Cancers: Adenocarcinoma or poorly differentiated large cell carcinoma or unspecified, incidence rate (number): 0.12 (10) per 100 person years
300 mg SC, vs placebo
  total cancer mortality: fell by half
All Doses
  Breast, incidence rate (number): 0.06(16) per 100 person years
  Central Nervous System, incidence rate (number): 0.04(10) per 100 person years
  Endocrine: Adrenal, incidence rate (number): 0.01(2) per 100 person years
  Endocrine: Thyroid, incidence rate (number): 0.02(4) per 100 person years
  Gastrointenstinal: Appendiceal, incidence rate (number): 0.00(1) per 100 person years
  Gastrointenstinal: Biliary, incidence rate (number): 0.02(5) per 100 person years
  Gastrointenstinal: Colorectal, incidence rate (number): 0.21(54) per 100 person years
  Gastrointenstinal: Esophageal, incidence rate (number): 0.06(16) per 100 person years
  Gastrointenstinal: Gastric, incidence rate (number): 0.04(10) per 100 person years
  Gastrointenstinal: Oral cavity/tongue, incidence rate (number): 0.03(8) per 100 person years
  Gastrointenstinal: Pancreatic, incidence rate (number): 0.05(13) per 100 person years
  Genitourinary: Bladder, incidence rate (number): 0.10(26) per 100 person years
  Genitourinary: Cervical, incidence rate (number): 0.00(1) per 100 person years
  Genitourinary: Endometrial/Uterine, incidence rate (number): 0.02(5) per 100 person years
  Genitourinary: Ovarian, incidence rate (number): 0.00(1) per 100 person years
  Genitourinary: Prostate, incidence rate (number): 0.17(44) per 100 person years
  Genitourinary: Testicular, incidence rate (number): 0.00(1) per 100 person years
  Hematopoetic: Leukemia, incidence rate (number): 0.02(4) per 100 person years
  Hematopoetic: Lymphoma, incidence rate (number): 0.05(13) per 100 person years
  Hematopoetic: Multiple myeloma, incidence rate (number): 0.01(2) per 100 person years
  Kidney, incidence rate (number): 0.09(22) per 100 person years
  Liver, incidence rate (number): 0.04(11) per 100 person years
  Lung Cancers: Adenocarcinoma or poorly differentiated large cell carcinoma or unspecified, incidence rate (number): 0.23 (59) per 100 person years
  Lung Cancers: Pleural cancer, incidence rate (number): 0 per 100 person years
  Lung Cancers: Small cell lung cancer, incidence rate (number): 0.01 (3) per 100 person years
  Lung Cancers: Squamous cell lung carcinoma, incidence rate (number): 0.02 (6) per 100 person years
  Other cancer sites: Other, incidence rate (number): 0.05(13) per 100 person years
  Sarcoma / Bone, incidence rate (number): 0.01(2) per 100 person years
  Skin: Basal cell carcinoma, incidence rate (number): 0.26(65) per 100 person years
  Skin: Melanoma, incidence rate (number): 0.06(16) per 100 person years
  Skin: Other, incidence rate (number): 0.03(7) per 100 person years
  Skin: Squamous cell skin cancer, incidence rate (number): 0.17(44) per 100 person years
Among those assigned to canakinumab (placebo 26.0%)
  share of all cancers that were lung cancers: 16%
Among those assigned to canakinumab (placebo 47%)
  share of cancer deaths that were lung cancers: 34%
